The source of these data is the SangsterLogP compilation.

A short description of one data set: method code SF-ESR, from DOI: 10.3109/10715769009149900, PMID: 2175281. The following applies: pH 2.5.
`CC1(C)C=C(C(=O)O)C(C)(C)N1O` had a logD of 1.11.

Compound `CC1(C)[C@H](C(=O)O)[C@H](C(=O)O)C(C)(C)N1O` registered a logD of 0.46.

Staying with this data set, now noted: pH 7.0.
`CC1(C)CC(C(N)=O)C(C)(C)N1O` (stereo unspecified) came in with a logD of -0.21. The same measure, in the same setting: the value for `CC1(C)CC(CO)C(C)(C)N1O` (stereo unspecified) was 0.34. Compound `CC1(C)C=CCC(C)(C)N1O` gave a logD of 1.78. Consider `CC1(C)C=C(C(N)=O)C(C)(C)N1O`, for which the logD was 0.25.

Compound `CC1(C)CC(=O)CC(C)(C)N1O` had a logD of 0.12. `CC1(C)CC(O)CC(C)(C)N1O`: the logD amounted to 0.63. The compound `CC1(C)C=CC(C)(C)N1O` displayed a logD of 1.31.

The same data set, now with this note: pH 12.0.
Consider `CC1(C)CC(CN)C(C)(C)N1O` (stereo unspecified), for which the pH-dependent lipophilicity (logD) is 0.36. The same measure, in the same setting: the value for `CC1(C)C=C(CN2CCCCC2)CC(C)(C)N1O` was 1.58; that for `CC1(C)C=C(CN2CCCCC2)C(C)(C)N1O` was 1.88; that for `CC1(C)CC(N)C(C)(C)N1O` (stereo unspecified) was 1.03.

As for `CC1(C)C=C(CN2CCOCC2)CC(C)(C)N1O`, the logD came out at 1.14. Still for that read-out and setting: the same measure for `CN(C)CCN(C)CC1=CC(C)(C)N(O)C1(C)C`: 0.91. Same read-out and setting: the value for `CN(C)CC1=CC(C)(C)N(O)C1(C)C` was 0.7.
